{"source": "patent US8192962B2", "about": "“Processes for detecting toxic substances” (Daikin Industries, Ltd., priority 2001, dated 2012)", "system": "DNA repair protein genes", "assay": "DNA chip mRNA expression in yeast, DNA repair protein genes (Table 3)", "format": "cell-based, Saccharomyces cerevisiae S288C", "settings": "incubated two hours, concentrations as in the 1st table", "summary_of_the_method": "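S. cerevisiae S288C grown at 25° C. in YPD to log phase, then exposed 2 h to a toxicant at a growth-inhibiting, non-lethal concentration; untreated cells as control. Poly(A) mRNA reverse-transcribed with Cy3-dUTP or Cy5-dUTP, hybridized >12 h at 65° C. to whole-genome yeast DNA chip; value = fluorescence ratio treated/untreated.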"}
{"compound": "[Cl][Cd][Cl]", "note": "[(2), CdCl2]", "values": [{"measurement": "The level of expressed mRNA in the presence of chemical substance/The level of expressed mRNA in the absence of chemical substance", "setting": "yeast gene YAL015C", "result": 1.1}, {"measurement": "The level of expressed mRNA in the presence of chemical substance/The level of expressed mRNA in the absence of chemical substance", "setting": "yeast gene YAR007C", "result": 1.9}, {"measurement": "The level of expressed mRNA in the presence of chemical substance/The level of expressed mRNA in the absence of chemical substance", "setting": "yeast gene YBL019W", "result": 9.1}, {"measurement": "The level of expressed mRNA in the presence of chemical substance/The level of expressed mRNA in the absence of chemical substance", "setting": "yeast gene YBR073W", "result": 1.0}, {"measurement": "The level of expressed mRNA in the presence of chemical substance/The level of expressed mRNA in the absence of chemical substance", "setting": "yeast gene YBR272C", "result": 1.8}, {"measurement": "The level of expressed mRNA in the presence of chemical substance/The level of expressed mRNA in the absence of chemical substance", "setting": "yeast gene YCR014C", "result": 1.0}, {"measurement": "The level of expressed mRNA in the presence of chemical substance/The level of expressed mRNA in the absence of chemical substance", "setting": "yeast gene YDL017W", "result": 2.3}, {"measurement": "The level of expressed mRNA in the presence of chemical substance/The level of expressed mRNA in the absence of chemical substance", "setting": "yeast gene YDL059C", "result": 5.1}, {"measurement": "The level of expressed mRNA in the presence of chemical substance/The level of expressed mRNA in the absence of chemical substance", "setting": "yeast gene YDL200C", "result": 2.0}, {"measurement": "The level of expressed mRNA in the presence of chemical substance/The level of expressed mRNA in the absence of chemical substance", "setting": "yeast gene YDR054C", "result": 1.0}, {"measurement": "The level of expressed mRNA in the presence of chemical substance/The level of expressed mRNA in the absence of chemical substance", "setting": "yeast gene YDR369C", "result": 1.1}, {"measurement": "The level of expressed mRNA in the presence of chemical substance/The level of expressed mRNA in the absence of chemical substance", "setting": "yeast gene YEL019C", "result": 1.6}, {"measurement": "The level of expressed mRNA in the presence of chemical substance/The level of expressed mRNA in the absence of chemical substance", "setting": "yeast gene YEL037C", "result": 2.0}, {"measurement": "The level of expressed mRNA in the presence of chemical substance/The level of expressed mRNA in the absence of chemical substance", "setting": "yeast gene YER162C", "result": 1.2}, {"measurement": "The level of expressed mRNA in the presence of chemical substance/The level of expressed mRNA in the absence of chemical substance", "setting": "yeast gene YFL014W", "result": 5.1}, {"measurement": "The level of expressed mRNA in the presence of chemical substance/The level of expressed mRNA in the absence of chemical substance", "setting": "yeast gene YGL058W", "result": 1.1}, {"measurement": "The level of expressed mRNA in the presence of chemical substance/The level of expressed mRNA in the absence of chemical substance", "setting": "yeast gene YGL091C", "result": 1.8}, {"measurement": "The level of expressed mRNA in the presence of chemical substance/The level of expressed mRNA in the absence of chemical substance", "setting": "yeast gene YGL127C", "result": 1.9}, {"measurement": "The level of expressed mRNA in the presence of chemical substance/The level of expressed mRNA in the absence of chemical substance", "setting": "yeast gene YGL163C", "result": 0.8}, {"measurement": "The level of expressed mRNA in the presence of chemical substance/The level of expressed mRNA in the absence of chemical substance", "setting": "yeast gene YGL249W", "result": 0.8}, {"measurement": "The level of expressed mRNA in the presence of chemical substance/The level of expressed mRNA in the absence of chemical substance", "setting": "yeast gene YGR180C", "result": 1.1}, {"measurement": "The level of expressed mRNA in the presence of chemical substance/The level of expressed mRNA in the absence of chemical substance", "setting": "yeast gene YGR231C", "result": 1.2}, {"measurement": "The level of expressed mRNA in the presence of chemical substance/The level of expressed mRNA in the absence of chemical substance", "setting": "yeast gene YGR258C", "result": 0.9}, {"measurement": "The level of expressed mRNA in the presence of chemical substance/The level of expressed mRNA in the absence of chemical substance", "setting": "yeast gene YHR164C", "result": 1.3}, {"measurement": "The level of expressed mRNA in the presence of chemical substance/The level of expressed mRNA in the absence of chemical substance", "setting": "yeast gene YIL036W", "result": 1.3}, {"measurement": "The level of expressed mRNA in the presence of chemical substance/The level of expressed mRNA in the absence of chemical substance", "setting": "yeast gene YIL072W", "result": 3.1}, {"measurement": "The level of expressed mRNA in the presence of chemical substance/The level of expressed mRNA in the absence of chemical substance", "setting": "yeast gene YIL143C", "result": 0.8}, {"measurement": "The level of expressed mRNA in the presence of chemical substance/The level of expressed mRNA in the absence of chemical substance", "setting": "yeast gene YIL153W", "result": 1.4}, {"measurement": "The level of expressed mRNA in the presence of chemical substance/The level of expressed mRNA in the absence of chemical substance", "setting": "yeast gene YIR002C", "result": 1.1}, {"measurement": "The level of expressed mRNA in the presence of chemical substance/The level of expressed mRNA in the absence of chemical substance", "setting": "yeast gene YJL026W", "result": 2.4}, {"measurement": "The level of expressed mRNA in the presence of chemical substance/The level of expressed mRNA in the absence of chemical substance", "setting": "yeast gene YJR046W", "result": 1.2}, {"measurement": "The level of expressed mRNA in the presence of chemical substance/The level of expressed mRNA in the absence of chemical substance", "setting": "yeast gene YJR052W", "result": 1.0}, {"measurement": "The level of expressed mRNA in the presence of chemical substance/The level of expressed mRNA in the absence of chemical substance", "setting": "yeast gene YKL145W", "result": 1.4}, {"measurement": "The level of expressed mRNA in the presence of chemical substance/The level of expressed mRNA in the absence of chemical substance", "setting": "yeast gene YLR103C", "result": 1.5}, {"measurement": "The level of expressed mRNA in the presence of chemical substance/The level of expressed mRNA in the absence of chemical substance", "setting": "yeast gene YLR233C", "result": 0.9}, {"measurement": "The level of expressed mRNA in the presence of chemical substance/The level of expressed mRNA in the absence of chemical substance", "setting": "yeast gene YLR288C", "result": 0.8}, {"measurement": "The level of expressed mRNA in the presence of chemical substance/The level of expressed mRNA in the absence of chemical substance", "setting": "yeast gene YML032C", "result": 0.9}, {"measurement": "The level of expressed mRNA in the presence of chemical substance/The level of expressed mRNA in the absence of chemical substance", "setting": "yeast gene YML058W", "result": 1.2}, {"measurement": "The level of expressed mRNA in the presence of chemical substance/The level of expressed mRNA in the absence of chemical substance", "setting": "yeast gene YMR035W", "result": 1.7}, {"measurement": "The level of expressed mRNA in the presence of chemical substance/The level of expressed mRNA in the absence of chemical substance", "setting": "yeast gene YMR072W", "result": 1.0}, {"measurement": "The level of expressed mRNA in the presence of chemical substance/The level of expressed mRNA in the absence of chemical substance", "setting": "yeast gene YMR096W", "result": 1.7}, {"measurement": "The level of expressed mRNA in the presence of chemical substance/The level of expressed mRNA in the absence of chemical substance", "setting": "yeast gene YMR284W", "result": 1.0}, {"measurement": "The level of expressed mRNA in the presence of chemical substance/The level of expressed mRNA in the absence of chemical substance", "setting": "yeast gene YNL213C", "result": 11.6}, {"measurement": "The level of expressed mRNA in the presence of chemical substance/The level of expressed mRNA in the absence of chemical substance", "setting": "yeast gene YNL250W", "result": 2.2}, {"measurement": "The level of expressed mRNA in the presence of chemical substance/The level of expressed mRNA in the absence of chemical substance", "setting": "yeast gene YNL261W", "result": 1.3}, {"measurement": "The level of expressed mRNA in the presence of chemical substance/The level of expressed mRNA in the absence of chemical substance", "setting": "yeast gene YNL312W", "result": 1.0}, {"measurement": "The level of expressed mRNA in the presence of chemical substance/The level of expressed mRNA in the absence of chemical substance", "setting": "yeast gene YOL043C", "result": 0.9}, {"measurement": "The level of expressed mRNA in the presence of chemical substance/The level of expressed mRNA in the absence of chemical substance", "setting": "yeast gene YOR005C", "result": 1.8}, {"measurement": "The level of expressed mRNA in the presence of chemical substance/The level of expressed mRNA in the absence of chemical substance", "setting": "yeast gene YOR386W", "result": 0.8}, {"measurement": "The level of expressed mRNA in the presence of chemical substance/The level of expressed mRNA in the absence of chemical substance", "setting": "yeast gene YPL022W", "result": 0.8}, {"measurement": "The level of expressed mRNA in the presence of chemical substance/The level of expressed mRNA in the absence of chemical substance", "setting": "yeast gene YPL164C", "result": 0.7}, {"measurement": "The level of expressed mRNA in the presence of chemical substance/The level of expressed mRNA in the absence of chemical substance", "setting": "yeast gene YPL194W", "result": 1.4}, {"measurement": "The level of expressed mRNA in the presence of chemical substance/The level of expressed mRNA in the absence of chemical substance", "setting": "yeast gene YPR025C", "result": 0.8}]}
